≈ marks a conversion by molar mass, not a printed value. Where two headings read alike, the source gives them in different places.
Experiments:
[1] = test system: polyclonal anti-TCPN antibody; assay: TCPN EIA, reactivity profile with polyclonal antibody; assay type: binding; settings: for IC50: 10 min; for % Cross Reactivity: relative to TCPN
Experimental: (§1) The following immunoassay protocol was followed
(§2) 1. Microplates were prepared by binding screening conjugate Cl-O-AHT to the polystyrene surface.
(§3) 2. An appropriately diluted sample (200 μl) and the anti-TCPN antibody conjugated to horse radish peroxidase (50 μl) were added and incubated for 10 minutes.
(§4) 3. The wells were rinsed, and 200 μl of substrate, tetramethyl benzidine (TMB), was added to the wells.
(§5) 4. The plates were incubated for a further 10 minutes and 50 μl of stop solution (1.5% NaF) was added.
(§6) 5. The color reaction was read by measuring absorbance at 650 nm.
(§7) The cross reactivity of various TCPN derivatives and other benzene ring-based haptens were assessed using the above antibody preparations.

[2] = test system: mAb 6F9; assay: TCPN EIA, reactivity profile with monoclonal antibody; assay type: binding, mouse; settings: for IC50: 10 min; for % Cross Reactivity: relative to TCPN
Experimental: as §1, §2, §3, §4, §5, §6, §7

[3] = Solubility; assay type: physicochemical
[4] = test system: experimental animals; settings: cited from earlier work
[5] = test system: human skin; settings: cited from earlier work
[6] = cited from earlier work
[7] = water or polar organic solvents

N#Cc1c(N)c(Cl)c(Cl)c(C#N)c1Cl [4-aminoTCPN, 4-amino-2,5,6-trichloroisophthalonitrile]
IC50 [1]: 43 ppb | % Cross Reactivity [1]: 12% | IC50 [2]: 2.4 ppb | % Cross Reactivity [2]: 92%

N#Cc1c(O)c(Cl)c(Cl)c(C#N)c1Cl [4-hydroxyTCPN, 4-hydroxy-2,5,6-trichloroisophthalonitrile]
IC50 [1]: 1010 ppb | % Cross Reactivity [1]: 0.5% | IC50 [2]: 8.0 ppb | % Cross Reactivity [2]: 28%

N#Cc1c(S)c(Cl)c(Cl)c(C#N)c1Cl [4-mercaptoTCPN, 4-mercapto-2,5,6-trichloroisophthalonitrile]
IC50 [1]: 10 ppb | % Cross Reactivity [1]: 60% | IC50 [2]: 4.8 ppb | % Cross Reactivity [2]: 46%

N#Cc1c(Cl)c(N)c(Cl)c(C#N)c1Cl [5-amino-TCPN, 5-amino-2,4,6-trichloroisophthalonitrile]
IC50 [1]: 43 ppb | % Cross Reactivity [1]: 12% | IC50 [2]: 1.9 ppb | % Cross Reactivity [2]: 116%

N#Cc1c(Cl)c(O)c(Cl)c(C#N)c1Cl [5-hydroxyTCPN, 5-hydroxy-2,4,6-trichloroisophthalonitrile]
IC50 [1]: 800 ppb | % Cross Reactivity [1]: 0.6% | IC50 [2]: 7.0 ppb | % Cross Reactivity [2]: 31%

CCc1cccc(CC)c1N(COC)C(=O)CCl [Alachlor]
IC50 [1]: > 10^4 ppb | % Cross Reactivity [1]: < 0.01% | IC50 [2]: > 10^4 ppb | % Cross Reactivity [2]: < 0.01%

CCNc1nc(Cl)nc(NC(C)C)n1 [Atrazine]
IC50 [1]: > 10^4 ppb | % Cross Reactivity [1]: < 0.01% | IC50 [2]: > 10^4 ppb | % Cross Reactivity [2]: < 0.01%

N#Cc1c(Cl)c(C#N)c(Cl)c(OC(=O)NCC(=O)O)c1Cl [BK-489-35]
solubility [3, 7]: extremely low solubility

N#Cc1c(Cl)c(C#N)c(Cl)c(OC(=O)CC(=O)O)c1Cl [BK-489-36]
solubility ([3]; dmf, organic solvent or mixture, read-out: solubility): 4.5 mg/mL (≈ 13.5 mM)

N#Cc1c(Cl)c(C#N)c(Cl)c(NC(=O)NCC(=O)O)c1Cl [BK-489-41]
solubility [3, 7]: high solubility

CCCCNC(=O)n1c(NC(=O)OC)nc2ccccc21 [Benomyl]
IC50 [1]: > 10^4 ppb | % Cross Reactivity [1]: < 0.01% | IC50 [2]: > 10^4 ppb | % Cross Reactivity [2]: < 0.01%

Clc1c(Cl)c(Cl)c(Cl)c(Cl)c1Cl [HCB, hexachlorobenzene]
IC50 [1]: > 10^4 ppb | % Cross Reactivity [1]: < 0.01% | IC50 [2]: > 10^4 ppb | % Cross Reactivity [2]: < 0.01%

COC(=O)Nc1nc2ccccc2[nH]1 [MBC, carbendazim]
IC50 [1]: > 10^4 ppb | % Cross Reactivity [1]: < 0.01% | IC50 [2]: > 10^4 ppb | % Cross Reactivity [2]: < 0.01%

CCc1cccc(C)c1N(C(=O)CCl)C(C)COC (stereo not drawn) [Metolachlor]
IC50 [1]: > 10^4 ppb | % Cross Reactivity [1]: < 0.01% | IC50 [2]: > 10^4 ppb | % Cross Reactivity [2]: < 0.01%

N#Cc1c(Cl)c(Cl)c(Cl)c(Cl)c1Cl [PCBN, pentachlorobenzonitrile]
IC50 [1]: 60 ppb | % Cross Reactivity [1]: 8.3% | IC50 [2]: 30 ppb | % Cross Reactivity [2]: 7.3%

N#Cc1c(Cl)c(Cl)c(Cl)c(C#N)c1Cl [TCPN, tetrachloroisophthalonitrile]
IC50 [1]: 5.0 ppb | % Cross Reactivity [1]: 100% | sensitizing properties [4]: sensitizing properties | IC50 [2]: 2.2 ppb | % Cross Reactivity [2]: 100% | allergic reaction ([5]; exposed humans): stimulates an allergic reaction, leading to an IgE antibody response | contact dermatitis ([5]; production plant and field): associated with contact dermatitis | sensitizing properties ([5]; tested directly on human skin): sensitizing properties | solubility in water [6]: practically insoluble in water

CCCN(CCC)c1c([N+](=O)[O-])cc(C(F)(F)F)cc1[N+](=O)[O-] [Trifluralin]
IC50 [1]: > 10^4 ppb | % Cross Reactivity [1]: < 0.01% | IC50 [2]: > 10^4 ppb | % Cross Reactivity [2]: < 0.01%

NC(=O)c1c(Cl)c(Cl)cc(C(=O)O)c1Cl [acid/amide TCPN, 3-carbamyl-2,4,5-trichlorobenzoic acid]
IC50 [1]: > 10^4 ppb | % Cross Reactivity [1]: < 0.01% | IC50 [2]: > 10^4 ppb | % Cross Reactivity [2]: < 0.01%

N#Cc1c(Cl)c(Cl)c(Cl)c(C(N)=O)c1Cl [amide TCPN, 2,4,5,6-tetrachloro-3-cyanobenzamide]
IC50 [1]: 700 ppb | % Cross Reactivity [1]: 0.7% | IC50 [2]: 800 ppb | % Cross Reactivity [2]: 2.8%
